According to PubChem BioAssay (NCI):
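The concentration for 50% growth inhibition is given as GI50. TGI: concentration producing complete growth inhibition.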

Legend:
Experiment in all cases: DTP human tumour cell line panel, 384-well format
[1] = tested on: NCI-H460 NSCLC
[2] = tested on: T-47D breast
[3] = tested on: HS 578T breast
[4] = tested on: SW-620 colon
[5] = tested on: KM12 colon
[6] = tested on: HL-60(TB) leukemia
[7] = tested on: TK-10 renal
[8] = tested on: RPMI-8226 leukemia
[9] = tested on: SF-268 CNS
[10] = tested on: NCI-H322M lung
[11] = tested on: OVCAR-8 ovarian
[12] = tested on: UACC-257 melanoma
[13] = tested on: COLO 205 colon
[14] = tested on: BT-549 breast
[15] = tested on: HOP-62 NSCLC
[16] = tested on: RXF 393 renal
[17] = tested on: OVCAR-3 ovarian
[18] = tested on: MDA-MB-468 breast
[19] = tested on: MOLT-4 leukemia
[20] = tested on: SNB-75 CNS
[21] = tested on: ACHN renal
[22] = tested on: SNB-19 CNS
[23] = tested on: A549 NSCLC
[24] = tested on: EKVX NSCLC
[25] = tested on: SK-MEL-5 melanoma
[26] = tested on: UACC-62 melanoma
[27] = tested on: CAKI-1 renal
[28] = tested on: SF-295 CNS
[29] = tested on: MDA-MB-231 breast
[30] = tested on: 786-0 renal
[31] = tested on: MALME-3M melanoma
[32] = tested on: M14 melanoma
[33] = tested on: NCI-H226 lung
[34] = tested on: SK-MEL-2 melanoma
[35] = tested on: OVCAR-4 ovarian
[36] = tested on: DU-145 prostate
[37] = tested on: PC-3 prostate
[38] = tested on: SK-OV-3 ovarian
[39] = tested on: U251 glioblastoma
[40] = tested on: NCI/ADR-RES ovarian
[41] = tested on: SR leukemia
[42] = tested on: MCF7 breast
[43] = tested on: HCC-2998 colon
[44] = tested on: MDA-MB-435 melanoma
[45] = tested on: HT29 colon
[46] = tested on: SK-MEL-28 melanoma
[47] = tested on: NCI-H522 lung
[48] = tested on: NCI-H23 lung
[49] = tested on: OVCAR-5 ovarian
[50] = tested on: SF-539 CNS
[51] = tested on: HCT-15 colon
[52] = tested on: HOP-92 NSCLC
[53] = tested on: A498 renal
[54] = tested on: IGROV1 ovarian
[55] = tested on: SN12C renal
[56] = tested on: CCRF-CEM leukemia

For COCC1(CO)C(=O)C2CCN1CC2 (configuration not stated), the GI50 [1] was 17.4 µM, the TGI [1] was 31.6 µM and the GI50 [2] was 1.58 µM. For the same compound, the TGI [2] was 2.94 µM, the GI50 [3] was 13.1 µM and the TGI [3] was 25.9 µM. It also gave a GI50 [4] of 14.2 µM, a TGI [4] of 27.4 µM and a GI50 [5] of 17.9 µM. For the same compound, the TGI [5] was 32 µM, the GI50 [6] was 13 µM and the TGI [6] was 25.9 µM. The GI50 [7] was 17 µM, the TGI [7] was 30.7 µM and the GI50 [8] was 10.5 µM. The TGI [8] was 22.3 µM, the GI50 [9] was 20 µM and the TGI [9] was 34.2 µM. It also gave a GI50 [10] of 19.7 µM, a TGI [10] of 35.2 µM and a GI50 [11] of 19.8 µM. It also gave a TGI [11] of 34.1 µM, a GI50 [12] of 13.9 µM and a TGI [12] of 27 µM. The GI50 [13] was 18.1 µM, the TGI [13] was 32.1 µM and the GI50 [14] was 11.5 µM. The TGI [14] was 23.7 µM, the GI50 [15] was 1.86 µM and the TGI [15] was 3.49 µM. It also gave a GI50 [16] of 2 µM, a TGI [16] of 3.43 µM and a GI50 [17] of 14.6 µM. It also gave a TGI [17] of 27.9 µM, a GI50 [18] of 3.28 µM and a TGI [18] of 7.2 µM. For the same compound, the GI50 [19] was 2.27 µM, the TGI [19] was 6.55 µM and the GI50 [20] was 1.79 µM. The TGI [20] was 3.73 µM, the GI50 [21] was 20.3 µM and the TGI [21] was 34.6 µM. The GI50 [22] was 17.5 µM, the TGI [22] was 31.5 µM and the GI50 [23] was 18.2 µM. It also gave a TGI [23] of 32.4 µM, a GI50 [24] of 16.9 µM and a TGI [24] of 30.6 µM. It also gave a GI50 [25] of 15.5 µM, a TGI [25] of 29 µM and a GI50 [26] of 18.2 µM. The TGI [26] was 32.2 µM, the GI50 [27] was 17.1 µM and the TGI [27] was 30.9 µM. For the same compound, the GI50 [28] was 17.5 µM, the TGI [28] was 31.6 µM and the GI50 [29] was 17.7 µM. The TGI [29] was 31.7 µM, the GI50 [30] was 15.5 µM and the TGI [30] was 28.9 µM. The GI50 [31] was 17.5 µM, the TGI [31] was 31.3 µM and the GI50 [32] was 17.8 µM. The TGI [32] was 31.8 µM, the GI50 [33] was 21.9 µM and the TGI [33] was 36.4 µM. The GI50 [34] was 2.62 µM, the TGI [34] was 5.41 µM and the GI50 [35] was 2.6 µM. For the same compound, the TGI [35] was 6.3 µM, the GI50 [36] was 17.9 µM and the TGI [36] was 32 µM. For the same compound, the GI50 [37] was 19.1 µM, the TGI [37] was 33.3 µM and the GI50 [38] was 19.3 µM. The TGI [38] was 33.4 µM, the GI50 [39] was 18.7 µM and the TGI [39] was 32.8 µM. The GI50 [40] was 16.2 µM, the TGI [40] was 29.9 µM and the GI50 [41] was 14.6 µM. It also gave a TGI [41] of 27.8 µM, a GI50 [42] of 3.68 µM and a TGI [42] of 12.4 µM. For the same compound, the GI50 [43] was 17.2 µM, the TGI [43] was 31 µM and the GI50 [44] was 16.9 µM. The TGI [44] was 30.7 µM, the GI50 [45] was 19 µM and the TGI [45] was 33.2 µM. For the same compound, the GI50 [46] was 20.6 µM, the TGI [46] was 35 µM and the GI50 [47] was 1.83 µM. It also gave a TGI [47] of 3.24 µM, a GI50 [48] of 11.8 µM and a TGI [48] of 24.2 µM. For the same compound, the GI50 [49] was 16.5 µM, the TGI [49] was 30.2 µM and the GI50 [50] was 17.5 µM. For the same compound, the TGI [50] was 31.3 µM, the GI50 [51] was 4.34 µM and the TGI [51] was 13.9 µM. It also gave a GI50 [52] of 10.9 µM, a TGI [52] of 22.9 µM and a GI50 [53] of 16.7 µM. The TGI [53] was 30.5 µM, the GI50 [54] was 17.2 µM and the TGI [54] was 31.1 µM. It also gave a GI50 [55] of 15.3 µM, a TGI [55] of 28.8 µM and a GI50 [56] of 1.76 µM. For the same compound, the TGI [56] was 3.33 µM.
